Data on 2 substances can be found in patent US9061066B2 (priority 2010, dated 2015).

The subject of test [1] is mouse DCs. In kind it is cell-based.
For test [2], the system named is mouse DCs. In kind it is cell-based. This is another data set of the same source.
Test [3] deals with CD8+ OT-I T cells in C57B1/6 Ly5.1 mice. The note with it: mouse, in vivo, sc.

In the case of methyl-cyclodextrin [MβCD], the “TNF-alpha and IL-12 secretion, comparison of cyclic glucan structures” value in the test with mouse DCs [1] is given as “none of the cytokines were secreted”. The “surface expression of CD80, CD86, CD40 and MHC class II, comparison of cyclic glucan structures” value in the test on mouse DCs [2] is recorded as “failed to significantly activate DC”. With Poly I/C, the “OT-I T cell proliferation in the draining lymph node” value in test [3] is listed as “OT-I T cell proliferation”.
